Among the data in patent publication US9963453B2, “Substituted pyrazino[1,2-a]indoles as sigma receptor activity modulators” (LABORATORIOS DEL DR. ESTEVE S.A., priority 2013, dated 2018) are Ki values, retold here.

Structures can show the parent of a compound that is named as a salt.

human sigma 1 receptor, sequence (Q99720 whole entry): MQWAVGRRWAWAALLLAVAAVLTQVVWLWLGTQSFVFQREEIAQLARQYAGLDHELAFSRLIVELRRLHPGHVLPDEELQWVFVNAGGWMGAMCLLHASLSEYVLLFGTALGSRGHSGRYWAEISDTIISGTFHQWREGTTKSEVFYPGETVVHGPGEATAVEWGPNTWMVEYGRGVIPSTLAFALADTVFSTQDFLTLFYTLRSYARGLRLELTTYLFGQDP

This test has as its target human sigma 1 receptor (Homo sapiens (Human), UniProt Q99720). In words: Human Sigma 1 Receptor Radioligand Assay. Type of test: binding. To be noted: transfected HEK-293 membranes, 5 nM [3H](+)-pentazocine as radioligand, 37° C., 120 minutes. As for the experimental part: Human Sigma 1 Receptor Radioligand Assay
To investigate binding properties of sigma 1 receptor ligands to human sigma 1 receptor, transfected HEK-293 membranes and [^3H](+)-pentazocine (Perkin Elmer, NET-1056), as the radioligand, were used. The assay was carried out with 7 μg of membrane suspension, 5 nM of [^3H](+)-pentazocine in either absence or presence of either buffer or 10 μM Haloperidol for total and non-specific binding, respectively. Binding buffer contained Tris-HCl 50 mM at pH 8. Plates were incubated at 37° C. for 120 minutes. After the incubation period, the reaction mix was then transferred to MultiScreen HTS, FC plates (Millipore), filtered and plates were washed 3 times with ice-cold 10 mM TrisHCL (pH7.4). Filters were dried and counted at approximately 40% efficiency in a MicroBeta scintillation counter (Perkin-Elmer) using EcoScint liquid scintillation cocktail.
In turn, `O=C(CN1CCCCCC1)N1CCn2c(cc3cc(F)ccc32)C1` [Example 12, 2-(azepan-1-yl)-1-(8-fluoro-3,4-dihydropyrazino[1,2-a]indol-2(1H)-yl)ethanone] returned a Ki of 0.0146 µM.

With `CC(C(=O)N1CCn2c(cc3ccccc32)C1)N1CCCCC1` (stereo not drawn) [Example 9, 1-(3,4-dihydropyrazino[1,2-a]indol-2(1H)-yl)-2-(piperidin-1-yl)propan-1-one], the affinity corresponds to a Ki of 0.129 µM.

`CC(C(=O)N1CCn2c(cc3ccccc32)C1)N1CCN(C)CC1` (stereo not drawn) [Example 1, 1-(3,4-dihydropyrazino[1,2-a]indol-2(1H)-yl)-2-(4-methylpiperazin-1-yl)propan-1-one] yielded a Ki of 0.105 µM.

The compound `O=C(CN1CCCCCC1)N1CCn2c(cc3ccccc32)C1` [Example 4, 2-(azepan-1-yl)-1-(3,4-dihydropyrazino[1,2-a]indol-2(1H)-yl)ethanone hydrochloride] came in with an inhibition constant Ki of 0.0102 µM.

Turning to `C[C@@H](C(=O)N1CCn2c(cc3ccccc32)C1)N1CCN(C)CC1` [Example 19, (S)-1-(3,4-dihydropyrazino[1,2-a]indol-2(1H)-yl)-2-(4-methylpiperazin-1-yl)propan-1-one], the affinity, expressed as Ki, was 0.0559 µM.

`CC(C(=O)N1CCn2c(cc3cc(F)ccc32)C1)N1CCN(C)CC1` (stereo not drawn) [Example 26, 1-(8-fluoro-3,4-dihydropyrazino[1,2-a]indol-2(1H)-yl)-2-(4-methylpiperazin-1-yl)propan-1-one]: affinity was put at a Ki of 0.123 µM.

In turn, `O=C(CCCN1CCCCC1)N1CCn2c(cc3cc(F)ccc32)C1` [Example 16, 1-(8-fluoro-3,4-dihydropyrazino[1,2-a]indol-2(1H)-yl)-4-(piperidin-1-yl)butan-1-one] showed an inhibition constant Ki of 0.0222 µM. Against the preceding compound, the Ki is about 5.5-fold lower.

`CCC(C(=O)N1CCn2c(cc3ccccc32)C1)N(C)CCN(C)C` (stereo not drawn) [Example 39, 1-(3,4-dihydropyrazino[1,2-a]indol-2(1H)-yl)-2-((2-(dimethylamino)ethyl)(methyl)amino)butan-1-one] displayed a Ki of 0.427 µM.

On to `C[C@H](C(=O)N1CCN2c3ccccc3C[C@@H]2C1)N1CCN(C2CCCCC2)CC1` [Example 54, (R)-2-(4-cyclohexylpiperazin-1-yl)-1-((R)-3,4,10,10a-tetrahydropyrazino[1,2-a]indol-2(1H)-yl)propan-1-one], for which the Ki came out at 0.0716 µM. This Ki is about 6-fold lower than that of the compound before.

`O=C(CN1CCCCC1)N1CCn2c(cc3ccccc32)C1` [Example 5, 1-(3,4-dihydropyrazino[1,2-a]indol-2(1H)-yl)-2-(piperidin-1-yl)ethanone hydrochloride] showed a Ki of 0.0398 µM. Against the preceding compound, the Ki is about 1.8-fold lower.

As for `C[C@@H](CN1CCN(C)CC1)C(=O)N1CCn2c(cc3ccccc32)C1` [Example 48, (S)-1-(3,4-dihydropyrazino[1,2-a]indol-2(1H)-yl)-2-methyl-3-(4-methylpiperazin-1-yl)propan-1-one], the affinity corresponds to a Ki of 0.142 µM.

In the case of `O=C(CCN1CCCCCC1)N1CCn2c(cc3ccccc32)C1` [Example 17, 3-(azepan-1-yl)-1-(3,4-dihydropyrazino[1,2-a]indol-2(1H)-yl)propan-1-one], the inhibition constant Ki came out at 0.0109 µM.

For `O=C(CCCN1CCCCC1)N1CCn2c(cc3ccccc32)C1` [Example 20, 1-(3,4-dihydropyrazino[1,2-a]indol-2(1H)-yl)-4-(piperidin-1-yl)butan-1-one], the inhibition constant (Ki) was determined as 0.0288 µM.

Compound `CCN(CC)CCNC(C)C(=O)N1CCn2c(cc3ccccc32)C1` (stereo not drawn) [Example 30, 2-(2-(diethylamino)ethylamino)-1-(3,4-dihydropyrazino[1,2-a]indol-2(1H)-yl)propan-1-one] had a Ki of 0.241 µM.

As for `C[C@@H](C(=O)N1CCN2c3ccccc3C[C@@H]2C1)N1CCN(C2CCCCC2)CC1` [Example 52, (S)-2-(4-cyclohexylpiperazin-1-yl)-1-((R)-3,4,10,10a-tetrahydropyrazino[1,2-a]indol-2(1H)-yl)propan-1-one], the inhibition constant Ki was 0.142 µM.

`CC(C(=O)N1CCn2c(cc3ccccc32)C1)N1CCC(Cc2ccccc2)CC1` (stereo not drawn) [Example 10, 2-(4-benzylpiperidin-1-yl)-1-(3,4-dihydropyrazino[1,2-a]indol-2(1H)-yl)propan-1-one] returned a Ki of 0.025 µM.

`CN1CCN(CCCC(=O)N2CCn3c(cc4ccccc43)C2)CC1` [Example 22, 1-(3,4-dihydropyrazino[1,2-a]indol-2(1H)-yl)-4-(4-methylpiperazin-1-yl)butan-1-one] had an inhibitory constant (Ki) of 0.292 µM.

`CC[C@@H](C(=O)N1CCn2c(cc3ccccc32)C1)N1CCN(C)CC1` [Example 46, (S)-1-(3,4-dihydropyrazino[1,2-a]indol-2(1H)-yl)-2-(4-methylpiperazin-1-yl)butan-1-one]: the Ki was 0.0755 µM.

Turning to `CN(C)CCCC(=O)N1CCN2c3ccccc3CC2C1` (stereo not drawn) [Example 43, 4-(dimethylamino)-1-(3,4,10,10a-tetrahydropyrazino[1,2-a]indol-2(1H)-yl)butan-1-one], the affinity corresponds to a Ki of 0.151 µM.

The compound `C[C@H](C(=O)N1CCN2c3ccccc3C[C@H]2C1)N1CCN(C)CC1` [Example 32, (R)-2-(4-methylpiperazin-1-yl)-1-((S)-3,4,10,10a-tetrahydropyrazino[1,2-a]indol-2(1H)-yl)propan-1-one] registered a Ki of 0.234 µM.

In the case of `CCC(C(=O)N1CCn2c(cc3ccccc32)C1)N1CCN(C)CC1` (stereo not drawn) [Example 38, 1-(3,4-dihydropyrazino[1,2-a]indol-2(1H)-yl)-2-(4-methylpiperazin-1-yl)butan-1-one], affinity was put at a Ki of 0.0893 µM.

`CN(C)CCCC(=O)N1CCn2c(cc3ccccc32)C1` [Example 11, 1-(3,4-dihydropyrazino[1,2-a]indol-2(1H)-yl)-4-(dimethylamino)butan-1-one] came in with an inhibitory constant (Ki) of 0.0608 µM.

Regarding `CCN1CCN(C(C)C(=O)N2CCn3c(cc4cc(F)ccc43)C2)CC1` (stereo not drawn) [Example 29, 2-(4-ethylpiperazin-1-yl)-1-(8-fluoro-3,4-dihydropyrazino[1,2-a]indol-2(1H)-yl)propan-1-one], affinity was put at a Ki of 0.125 µM. Compared with the last compound, the Ki is about 2.1-fold higher.

As to `CC(CN1CCN(C)CC1)C(=O)N1CCn2c(cc3ccccc32)C1` (stereo not drawn) [Example 41, 1-(3,4-dihydropyrazino[1,2-a]indol-2(1H)-yl)-2-methyl-3-(4-methylpiperazin-1-yl)propan-1-one], the Ki was 0.073 µM. This Ki is about 1.7-fold lower than that of the compound before.

For `C[C@H](C(=O)N1CCN2c3ccccc3C[C@H]2C1)N1CCN(C2CCCCC2)CC1` [Example 51, (R)-2-(4-cyclohexylpiperazin-1-yl)-1-((S)-3,4,10,10a-tetrahydropyrazino[1,2-a]indol-2(1H)-yl)propan-1-one], the affinity corresponds to a Ki of 0.0599 µM.

With `CC(C(=O)N1CCn2c(cc3ccccc32)C1)N1CCCCCC1` (stereo not drawn) [Example 7, 2-(azepan-1-yl)-1-(3,4-dihydropyrazino[1,2-a]indol-2(1H)-yl)propan-1-one], the affinity, expressed as Ki, was 0.0248 µM.

`Cc1c2n(c3ccccc13)CCN(C(=O)CN1CCC(Cc3ccccc3)CC1)C2` [Example 15, 2-(4-benzylpiperidin-1-yl)-1-(10-methyl-3,4-dihydropyrazino[1,2-a]indol-2(1H)-yl)ethanone]: the affinity, expressed as Ki, was 0.0262 µM. The Ki values of the last two compounds are within 1.5-fold of each other.

With `CN1CCN(C(C)(C)C(=O)N2CCN3c4ccccc4CC3C2)CC1` (stereo not drawn) [Example 44, 2-methyl-2-(4-methylpiperazin-1-yl)-1-(3,4,10,10a-tetrahydropyrazino[1,2-a]indol-2(1H)-yl)propan-1-one], the affinity corresponds to a Ki of 0.175 µM.

Consider `Cc1c2n(c3ccccc13)CCN(C(=O)CN1CCCCC1)C2` [Example 14, 1-(10-methyl-3,4-dihydropyrazino[1,2-a]indol-2(1H)-yl)-2-(piperidin-1-yl)ethanone], for which the inhibitory constant (Ki) worked out at 0.024 µM.

On to `C[C@@H](C(=O)N1CCN2c3ccccc3C[C@H]2C1)N1CCN(C)CC1` [Example 34, (S)-2-(4-methylpiperazin-1-yl)-1-((S)-3,4,10,10a-tetrahydropyrazino[1,2-a]indol-2(1H)-yl)propan-1-one], for which the affinity, expressed as Ki, was 0.0565 µM.
